The text below walks through data of US9944647B2 (Incyte Corporation, priority 2015, dated 2018).

Bounds are passed on as bounds.

The target of the assay is LSD-1 enzyme (Homo sapiens (Human), UniProt O60341). In words: LANCE LSD1/KDM1A demethylase assay (LSD1 histone demethylase biochemical assay). Particulars: 1 nM LSD-1 enzyme, 1 hour preincubation at 25° C., Biotin-labeled Histone H3 peptide substrate.
On to `Cn1c(=O)oc2cc(-c3c(-c4ccc(C#N)cc4)nc(OC[C@@H]4CCCN(CCC#N)C4)n4ccnc34)ccc21` [Example 83, 4-[5-{[(3R)-1-(2-cyanoethyl)piperidin-3-yl]methoxy}-8-(3-methyl-2-oxo-2,3-dihydro-1,3-benzoxazol-6-yl)imidazo[1,2-c]pyrimidin-7-yl]benzonitrile], for which the IC50 (commonly the midpoint of a concentration-inhibition curve) is at most 50 nM.
As for `CN1CCC[C@@H](COc2nc(-c3ccc(C#N)cc3)c(-c3ccc(CN(C)S(C)(=O)=O)c(F)c3)c3nccn23)C1` [Example 84, N-[4-(7-(4-cyanophenyl)-5-{[(3R)-1-methylpiperidin-3-yl]methoxy}imidazo[1,2-c]pyrimidin-8-yl)-2-fluorobenzyl]-N-methylmethanesulfonamide], the figure is 50 to 500 nM; as for `CN1CCC[C@@H](COc2nc(-c3ccc(C#N)cc3)c(-c3ccc(CN(C)C(=O)N(C)C)c(F)c3)c3nccn23)C1` [Example 85, N-[4-(7-(4-cyanophenyl)-5-{[(3R)-1-methylpiperidin-3-yl]methoxy}imidazo[1,2-c]pyrimidin-8-yl)-2-fluorobenzyl]-N,N′,N′-trimethylurea], at most 50 nM.
As for `CN1CCC[C@@H](COc2nc(-c3ccc(C#N)cc3)c(-c3ccc(CN(C)C(=O)N(C)C)cc3)c3nccn23)C1` [Example 86, N-[4-(7-(4-cyanophenyl)-5-{[(3R)-1-methylpiperidin-3-y1]methoxy}imidazo[1,2-c]pyrimidin-8-yl)benzyl]-N,N′,N′-trimethylurea], the figure is at most 50 nM.
As for `COC(=O)N(C)Cc1ccc(-c2c(-c3ccc(C#N)cc3)nc(OC[C@@H]3CCCN(C)C3)n3ccnc23)cc1` [Example 87, methyl [4-(7-(4-cyanophenyl)-5-{[(3R)-1-methylpiperidin-3-yl]methoxy}imidazo[1,2-c]pyrimidin-8-yl)benzyl]methylcarbamate], the figure is at most 50 nM; as for `COc1ncc(-c2c(-c3ccc(C#N)cc3)nc(OC[C@@H]3CCCN(C)C3)n3ccnc23)cc1Cl` [Example 88, 4-(8-(5-chloro-6-methoxypyridin-3-yl)-5-{[(3R)-1-methylpiperidin-3-yl]methoxy}imidazo[1,2-c]pyrimidin-7-yl)benzonitrile], at most 50 nM; as for `Cc1cc(-c2c(-c3ccc(C#N)cc3)nc(N3CCC(N(C)C)CC3)n3ccnc23)cc(F)c1CO` [Example 89, 4-{5-[4-(dimethylamino)piperidin-1-yl]-8-[3-fluoro-4-(hydroxymethyl)-5-methylphenyl]imidazo[1,2-c]pyrimidin-7-yl}benzonitrile], at most 50 nM.
For `CN(C)C1CCN(c2nc(-c3ccc(C#N)cc3)c(-c3cc(F)c(CO)c(F)c3)c3nccn23)CC1` [Example 90, 4-{8-[3,5-difluoro-4-(hydroxymethyl)phenyl]-5-[4-(dimethylamino)piperidin-1-yl]imidazo[1,2-c]pyrimidin-7-yl}benzonitrile], the IC50 was at most 50 nM.
As for `Cc1cc(-c2c(-c3ccc(C#N)cc3)nc(N3CCC(N(C)C)CC3)n3ccnc23)ccc1CO` [Example 91, 4-{5-[4-(dimethylamino)piperidin-1-yl]-8-[4-(hydroxymethyl)-3-methylphenyl]imidazo[1,2-c]pyrimidin-7-yl}benzonitrile], the figure is at most 50 nM; as for `Cc1ncc(-c2c(-c3ccc(C#N)cc3)nc(OC[C@@H]3CCCN(C)C3)n3ccnc23)cc1Cl` [Example 92, 4-(8-(5-chloro-6-methylpyridin-3-yl)-5-{[(3R)-1-methylpiperidin-3-yl]methoxy}imidazo[1,2-c]pyrimidin-7-yl)benzonitrile], at most 50 nM.
Regarding `Cc1ccc(-c2c(-c3ccc(C#N)cc3)nc(OC[C@@H]3CCCN(C)C3)n3ccnc23)cc1C(C)O` (stereo partly drawn) [Example 93, 4-(8-[3-(1-hydroxyethyl)-4-methylphenyl]-5-{[(3R)-1-methylpiperidin-3-yl]methoxy}imidazo[1,2-c]pyrimidin-7-yl)benzonitrile], the IC50 is at most 50 nM.
As for `COCc1ccc(-c2c(-c3ccc(C#N)cc3)nc(OC[C@@H]3CCCN(C)C3)n3ccnc23)cc1` [Example 94, 4-(8-[4-(methoxymethyl)phenyl]-5-{[(3R)-1-methylpiperidin-3-yl]methoxy}imidazo[1,2-c]pyrimidin-7-yl)benzonitrile], the figure is at most 50 nM; as for `CN1CCC[C@@H](COc2nc(-c3ccc(C#N)cc3)c(-c3ccc(CN4CCOCC4)cc3F)c3nccn23)C1` [Example 95, 4-(8-[2-fluoro-4-(morpholin-4-ylmethyl)phenyl]-5-{[(3R)-1-methylpiperidin-3-yl]methoxy}imidazo[1,2-c]pyrimidin-7-yl)benzonitrile], at most 50 nM.
As for `Cc1ccc(-c2c(-c3ccc(C#N)cc3)nc(OC[C@@H]3CCCN(C)C3)n3ccnc23)cc1C#N` [Example 96, 5-(7-(4-cyanophenyl)-5-{[(3R)-1-methylpiperidin-3-yl]methoxy}imidazo[1,2-c]pyrimidin-8-yl)-2-methylbenzonitrile], the figure is at most 50 nM.
As for `CN(C)C(=O)N(C)Cc1ccc(-c2c(-c3ccc(C#N)cc3)nc(N3CCC(N(C)C)CC3)n3ccnc23)cc1F` [Example 97, N-(4-{7-(4-cyanophenyl)-5-[4-(dimethylamino)piperidin-1-yl]imidazo[1,2-c]pyrimidin-8-yl}-2-fluorobenzyl)-N,N′,N′-trimethylurea], the figure is at most 50 nM; as for `CN(C)C1CCN(c2nc(-c3ccc(C#N)cc3)c(-c3ccc(CN4CCOCC4)c(F)c3)c3nccn23)CC1` [Example 98, 4-{5-[4-(dimethylamino)piperidin-1-yl]-8-[3-fluoro-4-(morpholin-4-ylmethyl)phenyl]imidazo[1,2-c]pyrimidin-7-yl}benzonitrile], at most 50 nM; as for `CCN1CCC[C@@H](COc2nc(-c3ccc(C#N)cc3)c(-c3ccc(C)c(CO)c3)c3nccn23)C1` [Example 99, 4-{5-{[(3R)-1-ethylpiperidin-3-yl]methoxy}-8-[3-(hydroxymethyl)-4-methylphenyl]imidazo[1,2-c]pyrimidin-7-yl}benzonitrile], at most 50 nM.
Take `Cc1ccc(-c2c(-c3ccc(C#N)cc3)nc(N3CC[C@@H](N(C)C)C3)n3ccnc23)cc1CO` [Example 100, 4-{5-[(3R)-3-(dimethylamino)pyrrolidin-1-yl]-8-[3-(hydroxymethyl)-4-methylphenyl]imidazo[1,2-c]pyrimidin-7-yl}benzonitrile]: the IC50 was at most 50 nM.
As for `CN1CCC[C@@H](COc2nc(-c3ccc(C#N)cc3)c(-c3ccc(CO)c(Cl)c3)c3nccn23)C1` [Example 101, 4-(8-[3-chloro-4-(hydroxymethyl)phenyl]-5-{[(3R)-1-methylpiperidin-3-yl]methoxy}imidazo[1,2-c]pyrimidin-7-yl)benzonitrile], the figure is at most 50 nM; as for `Cc1ccc(-c2c(-c3ccc(C#N)cc3)nc(N3CCC(N(C)C)CC3)n3ccnc23)cc1CO` [Example 102, 4-{5-[4-(dimethylamino)piperidin-1-yl]-8-[3-(hydroxymethyl)-4-methylphenyl]imidazo[1,2-c]pyrimidin-7-yl}benzonitrile], at most 50 nM.
As for `Cc1ncc(-c2c(-c3ccc(C#N)cc3)nc(N3CCC(N(C)C)CC3)n3ccnc23)cc1Cl` [Example 103, 4-{8-(5-chloro-6-methylpyridin-3-yl)-5-[4-(dimethylamino)piperidin-1-yl]imidazo[1,2-c]pyrimidin-7-yl}benzonitrile], the figure is at most 50 nM.
The molecule `COc1ncc(-c2c(-c3ccc(C#N)cc3)nc(N3CCC(N(C)C)CC3)n3ccnc23)cc1Cl` [Example 104, 4-{8-(5-chloro-6-methoxypyridin-3-yl)-5-[4-(dimethylamino)piperidin-1-yl]imidazo[1,2-c]pyrimidin-7-yl}benzonitrile] registered an IC50 of at most 50 nM.
As for `COc1ncc(-c2c(-c3ccc(C#N)cc3)nc(N3CCC(N(C)C)CC3)n3ccnc23)cc1C#N` [Example 105, 5-{7-(4-cyanophenyl)-5-[4-(dimethylamino)piperidin-1-yl]imidazo[1,2-c]pyrimidin-8-yl}-2-methoxynicotinonitrile], the figure is at most 50 nM; as for `CCc1ccc(-c2c(-c3ccc(C#N)cc3)nc(OC[C@@H]3CCCN(C)C3)n3ccnc23)cn1` [Example 107, 4-(8-(6-ethylpyridin-3-yl)-5-{[(3R)-1-methylpiperidin-3-yl]methoxy}imidazo[1,2-c]pyrimidin-7-yl)benzonitrile], 50 to 500 nM; as for `CC(C)c1ccc(-c2c(-c3ccc(C#N)cc3)nc(OC[C@@H]3CCCN(C)C3)n3ccnc23)cn1` [Example 108, 4-(8-(6-isopropylpyridin-3-yl)-5-{[(3R)-1-methylpiperidin-3-yl]methoxy}imidazo[1,2-c]pyrimidin-7-yl)benzonitrile], 50 to 500 nM.
As for `CCN1CCC[C@@H](COc2nc(-c3ccc(C#N)cc3)c(-c3cc(C)c(CO)c(F)c3)c3nccn23)C1` [Example 109, 4-{5-{[(3R)-1-ethylpiperidin-3-yl]methoxy}-8-[3-fluoro-4-(hydroxymethyl)-5-methylphenyl]imidazo[1,2-c]pyrimidin-7-yl}benzonitrile], the figure is at most 50 nM; as for `Cc1cc(-c2c(-c3ccc(C#N)cc3)nc(N3CC[C@@H](N(C)C)C3)n3ccnc23)cc(F)c1CO` [Example 110, 4-{5-[(3R)-3-(dimethylamino)pyrrolidin-1-yl]-8-[3-fluoro-4-(hydroxymethyl)-5-methylphenyl]imidazo[1,2-c]pyrimidin-7-yl}benzonitrile], at most 50 nM.
As for `Cc1ccc(-c2c(-c3ccc(C#N)cc3)nc(N3CCC(N(C)C)CC3)n3ccnc23)c(CO)c1` [Example 111, 4-{5-[4-(dimethylamino)piperidin-1-yl]-8-[2-(hydroxymethyl)-4-methylphenyl]imidazo[1,2-c]pyrimidin-7-yl}benzonitrile], the figure is at most 50 nM.
With `Cc1ccc(-c2c(-c3ccc(C#N)cc3)nc(N3CCC(N(C)C)CC3)n3ccnc23)cn1` [Example 112, 4-[5-[4-(dimethylamino)piperidin-1-yl]-8-(6-methylpyridin-3-yl)imidazo[1,2-c]pyrimidin-7-yl]benzonitrile], the IC50 fell in the range of 50 to 500 nM.
As for `Cc1ncc(-c2c(-c3ccc(C#N)cc3)nc(N3CCC(N(C)C)CC3)n3ccnc23)cc1F` [Example 113, 4-[5-[4-(dimethylamino)piperidin-1-yl]-8-(5-fluoro-6-methylpyridin-3-yl)imidazo[1,2-c]pyrimidin-7-yl]benzonitrile], the figure is at most 50 nM.
